Tests used:
RA = RA Phase II studies in humans; cited from earlier work
murine model of RA = conditions: cited from earlier work
SYK = target: T1, SYK (Homo sapiens, UniProt P43405); test: SYK Flash Plate Assay (enzyme assay); assay type: biochemical
T1 construct: 2.5 nM SYK, 400 nM Biotin-Aha-Aha-KEDPDYEWPSAKK and 10 μM ATP

Row | Compound | IC50 (SYK) [nM] | also measured
1 | COc1cc(Nc2ncc(F)c(Nc3ccc4c(n3)NC(=O)C(C)(C)O4)n2)cc(OC)c1OC [Compound R406] |  | efficacy (ACR scores) (RA): efficacy (ACR scores improvement); tolerability (RA): good tolerability; bone erosion (murine model of RA): significantly reduced; clinical scores (murine model of RA): significant improvement of clinical scores; serum cytokine concentrations (murine model of RA): significantly reduced serum cytokine concentrations
2 | COc1cc(-c2cc3nccc(-c4nnc(C)o4)c3o2)cc(OC)c1OC [Compound A99, 7-(5-methyl-[1,3,4]oxadiazol-2-yl)-2-(3,4,5-trimethoxy-phenyl)-furo[3,2-b]pyridine] | 300 to 3000 | 
3 | COc1cc(-c2cc3nccc(-c4cccc(C(=O)NC[C@@H](O)CO)c4)c3o2)cc(OC)c1OC [Compound A17, N—((R)-2,3-dihydroxy-propyl)-3-[2-(3,4,5-trimethoxy-phenyl)-furo[3,2-b]pyridin-7-yl]-benzamide] | 3000 to 50000 | 
4 | COc1cc(-c2cc3nccc(-c4cccc(C(=O)N[C@H]5C[C@@H](N)C5)c4)c3o2)cc(OC)c1OC [Compound A27, N-(3-amino-cyclobutyl)-3-[2-(3,4,5-trimethoxy-phenyl)-furo[3,2-b]pyridin-7-yl]-benzamide] | 300 to 3000 | 
5 | COc1ccc(C(N)=O)cc1-c1cc2nccc(-c3ccc(C(=O)NCCN)cc3OC)c2o1 [Compound A95, N-(2-aminoethyl)-4-[2-(5-carbamoyl-2-methoxy-phenyl)furo[3,2-b]pyridin-7-yl]-3-methoxy-benzamide] | 100 to 300 | 
6 | COc1ccc(C(=O)NCC(O)CO)cc1-c1cc2nccc(-c3c(OC)cccc3OC)c2o1 (stereo not shown) [Compound A70, N-(2,3-dihydroxy-propyl)-3-[7-(2,6-dimethoxy-phenyl)-furo[3,2-b]pyridin-2-yl]-4-methoxy-benzamide] | 300 to 3000 | 
7 | COc1ccc(C(N)=O)cc1-c1cc2nccc(-c3cc[nH]c3)c2o1 [Compound A94, 4-methoxy-3-[7-(1H-pyrrol-3-yl)-furo[3,2-b]pyridin-2-yl]-benzamide] | 100 to 300 | 
8 | COc1cc(-c2cc3nccc(-c4ccc(O)nc4)c3o2)cc(OC)c1OC [Compound A38, 5-[2-(3,4,5-trimethoxy-phenyl)-furo[3,2-b]pyridin-7-yl]-pyridin-2-ol] | 300 to 3000 | 
9 | COc1ccc(C(N)=O)cc1-c1cc2nccc(-c3ccnc(NC[C@H]4CCCNC4)c3)c2o1 [Compound A90, 4-methoxy-3-(7-{2-[((S)-1-piperidin-3-ylmethyl)-amino]-pyridin-4-yl}-furo[3,2-b]pyridin-2-yl)-benzamide] | < 100 | 
10 | COc1ccc(C(N)=O)cc1-c1cc2nccc(-c3ccnc(NC4CCCCC4N)c3)c2o1 (stereo not shown) [Compound A81, 3-{7-[2-(2-amino-cyclohexylamino)-pyridin-4-yl]-furo[3,2-b]pyridin-2-yl}-4-methoxy-benzamide] | < 100 | 
11 | COc1ccc(C(=O)O)cc1-c1cc2nccc(-c3c(OC)cccc3OC)c2o1 [Compound A66, 3-[7-(2,6-dimethoxy-phenyl)-furo[3,2-b]pyridin-2-yl]-4-methoxy-benzoic acid] | 300 to 3000 | 
12 | Cc1ccc(S(N)(=O)=O)cc1-c1cc2nccc(-c3cccc(C(=O)N[C@@H]4CCCC[C@@H]4N)c3)c2o1 [Compound A50, N-((1R,2S)-2-amino-cyclohexyl)-3-[2-(2-methyl-5-sulfamoyl-phenyl)furo[3,2-b]pyridin-7-yl]-benzamide] | 300 to 3000 | 
13 | N[C@H]1CCCC[C@H]1NC(=O)c1cccc(-c2ccnc3cc(-c4cccc5c4OCO5)oc23)c1 [Compound A60, N-((1R,2S)-2-amino-cyclohexyl)-3-(2-benzo[1,3]dioxol-4-yl-furo[3,2-b]pyridin-7-yl)-benzamide] | 300 to 3000 | 
14 | COc1cc2[nH]cnc2cc1-c1ccnc2cc(-c3cc(OC)c(OC)c(OC)c3)oc12 [Compound A87, 7-(6-methoxy-1H-benzoimidazol-5-yl)-2-(3,4,5-trimethoxy-phenyl)-furo[3,2-b]pyridine] | 300 to 3000 | 
15 | COc1ccc(C(=O)NCCCN)cc1-c1ccnc2cc(-c3cc(OC)c(OC)c(OC)c3)oc12 [Compound A58, N-(3-amino-propyl)-4-methoxy-3-[2-(3,4,5-trimethoxy-phenyl)-furo[3,2-b]pyridin-7-yl]-benzamide] | 300 to 3000 | 
16 | COc1cc(-c2cc3nccc(-c4ccnc(O)c4)c3o2)cc(OC)c1OC [Compound A39, 4-[2-(3,4,5-trimethoxy-phenyl)-furo[3,2-b]pyridin-7-yl]-pyridin-2-ol] | 300 to 3000 | 
17 | COc1cccc(OC)c1-c1ccnc2cc(-c3cc(C(N)=O)ccc3C(C)C)oc12 [Compound A74, 3-[7-(2,6-dimethoxy-phenyl)-furo[3,2-b]pyridin-2-yl]-4-isopropyl-benzamide] | 3000 to 50000 | 
18 | COc1cc(-c2cc3nccc(-c4cc(F)cc(C(=O)N[C@@H]5CCCC[C@@H]5N)c4)c3o2)cc(OC)c1OC [Compound A35, N-((1R,2S)-2-amino-cyclohexyl)-3-fluoro-5-[2-(3,4,5-trimethoxy-phenyl)furo[3,2-b]pyridin-7-yl]-benzamide] | 300 to 3000 | 
19 | COc1ccc(S(N)(=O)=O)cc1-c1cc2nccc(-c3cc[nH]n3)c2o1 [Compound A82, 4-methoxy-3-[7-(1H-pyrazol-3-yl)-furo[3,2-b]pyridin-2-yl]-benzenesulfonamide] | < 100 | 
20 | COC[C@@H](CNC(=O)c1cccc(-c2ccnc3cc(-c4cc(OC)c(OC)c(OC)c4)oc23)c1)NS(C)(=O)=O [Compound A10, N—((R)-2-methanesulfonylamino-3-methoxy-propyl)-3-[2-(3,4,5-trimethoxyphenyl)-furo[3,2-b]pyridin-7-yl]-benzamide] | 300 to 3000 | 
21 | COc1ccc(C(N)=O)cc1-c1cc2nccc(-c3cc[nH]n3)c2o1 [Compound A72, 4-methoxy-3-[7-(1H-pyrazol-3-yl)-furo[3,2-b]pyridin-2-yl]-benzamide] | < 100 | 
22 | COc1ccc(C(N)=O)cc1-c1cc2nccc(-c3c(OC)cncc3OC)c2o1 [Compound A104, 3-[7-(3,5-dimethoxy-pyridin-4-yl)-furo[3,2-b]pyridin-2-yl]-4-methoxybenzamide] | 100 to 300 | 
23 | COc1cc(-c2cc3nccc(-c4cc(OCCN)ccc4F)c3o2)cc(OC)c1OC [Compound A44, 2-{4-fluoro-3-[2-(3,4,5-trimethoxy-phenyl)-furo[3,2-b]pyridin-7-yl]-phenoxy}-ethylamine] | 300 to 3000 | 
24 | COc1ccc(C(N)=O)cc1-c1cc2nccc(-c3cc(C(N)=O)ccc3OC)c2o1 [Compound A31, 3-[2-(5-carbamoyl-2-methoxy-phenyl)furo[3,2-b]pyridin-7-yl]-4-methoxybenzamide] | 300 to 3000 | 

Source: patent US20150038527A1, “FUROPYRIDINE DERIVATIVES” (Merck Patent GmbH, priority 2012, published 2015)
